Experimental data published in ChEMBL document CHEMBL1201861, “Genomics of Drug Sensitity in Cancer screening data, Wellcome Trust Sanger Institute”.

Legend:
Assay in all cases: cells
EGI-1 = format: functional, cell-based, Homo sapiens; settings: Homo sapiens, EGI-1;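 also: cell viability readout used to gauge growth inhibition of EGI-1 cells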
Description: SANGER: Inhibition of human EGI-1 cell growth in a cell viability assay.

CAPAN-1 = format: functional, cell-based, Homo sapiens; settings: Homo sapiens, CAPAN-1;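 also: growth suppression of CAPAN-1 cells, read out by a cell viability assay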
Description: SANGER: Inhibition of human CAPAN-1 cell growth in a cell viability assay.

Daoy = format: functional, cell-based, Homo sapiens; settings: Homo sapiens, Daoy;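 also: daoy cell growth inhibition, read out as cell viability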
Description: SANGER: Inhibition of human Daoy cell growth in a cell viability assay.

M14 = format: functional, cell-based, Homo sapiens; settings: Homo sapiens, M14;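 also: growth inhibition of M14 cells, read out with a cell viability assay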
Description: SANGER: Inhibition of human M14 cell growth in a cell viability assay.

BPH-1 = format: functional, cell-based, Homo sapiens; settings: Homo sapiens, BPH-1;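 also: cell viability assay measuring growth inhibition of human BPH-1 cells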
Description: SANGER: Inhibition of human BPH-1 cell growth in a cell viability assay.

TCC-SUP = format: functional, cell-based, Homo sapiens; settings: Homo sapiens, TCC-SUP;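 also: growth inhibition of TCC-SUP cells, read out with a cell viability assay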
Description: SANGER: Inhibition of human TCCSUP cell growth in a cell viability assay.

OE33 = format: functional, cell-based, Homo sapiens; settings: Homo sapiens, OE33;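 also: growth inhibition of human OE33 cells, measured by a cell viability assay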
Description: SANGER: Inhibition of human OE33 cell growth in a cell viability assay.

HT55 = format: functional, cell-based, Homo sapiens; settings: Homo sapiens, HT55;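 also: cell viability readout measuring growth inhibition of human HT55 cells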
Description: SANGER: Inhibition of human HT55 cell growth in a cell viability assay.

OVCAR-3 = format: functional, cell-based, Homo sapiens; settings: Homo sapiens, OVCAR-3;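 also: growth inhibition of human OVCAR-3 cells, determined by a cell viability assay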
Description: SANGER: Inhibition of human OVCAR-3 cell growth in a cell viability assay.

CAKI-1 = format: functional, cell-based, Homo sapiens; settings: Homo sapiens, CAKI-1;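 also: growth inhibition of CAKI-1 cells, measured by a cell viability assay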
Description: SANGER: Inhibition of human CAKI-1 cell growth in a cell viability assay.

SK-MEL-30 = format: functional, cell-based, Homo sapiens; settings: Homo sapiens, SK-MEL-30;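 also: growth inhibition of SK-MEL-30 cells, determined with a cell viability assay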
Description: SANGER: Inhibition of human SK-MEL-30 cell growth in a cell viability assay.

Detroit 562 = format: functional, cell-based, Homo sapiens; settings: Homo sapiens, Detroit 562;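 also: growth inhibition of human Detroit 562 cells, read out by a cell viability assay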
Description: SANGER: Inhibition of human Detroit562 cell growth in a cell viability assay.

SK-HEP1 = format: functional, cell-based, Homo sapiens, SK-HEP-1; settings: Homo sapiens, SK-HEP1;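 also: cell viability readout used to quantify reduction in proliferation of human SK-HEP-1 cells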
Description: SANGER: Inhibition of human SK-HEP-1 cell growth in a cell viability assay.

BT-20 = format: functional, cell-based, Homo sapiens; settings: Homo sapiens, BT-20;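 also: cell viability assay measuring suppression of growth in human BT-20 cells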
Description: SANGER: Inhibition of human BT-20 cell growth in a cell viability assay.

HT-1376 = format: functional, cell-based, Homo sapiens; settings: Homo sapiens, HT-1376
Description: SANGER: Inhibition of human HT-1376 cell growth in a cell viability assay.

PC-14 = format: functional, cell-based, Homo sapiens; settings: Homo sapiens, PC-14;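 also: cell viability assay measuring inhibition of PC-14 cell growth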
Description: SANGER: Inhibition of human PC-14 cell growth in a cell viability assay.

KYSE-520 cell line = format: functional, cell-based, Homo sapiens; settings: Homo sapiens, KYSE-520;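 also: growth inhibition of human KYSE-520 cells, read out with a viability assay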
Description: SANGER: Inhibition of human KYSE-520 cell growth in a cell viability assay.

RPMI-7951 = format: functional, cell-based, Homo sapiens; settings: Homo sapiens, RPMI-7951
Description: SANGER: Inhibition of human RPMI-7951 cell growth in a cell viability assay.

HT1197 = format: functional, cell-based, Homo sapiens, HT-1197; settings: Homo sapiens, HT1197
Description: SANGER: Inhibition of human HT-1197 cell growth in a cell viability assay.

OAW-42 = format: functional, cell-based, Homo sapiens; settings: Homo sapiens, OAW-42;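 also: growth inhibition of OAW-42 cells, read out with a cell viability assay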
Description: SANGER: Inhibition of human OAW-42 cell growth in a cell viability assay.

SK-LU-1 = format: functional, cell-based, Homo sapiens; settings: Homo sapiens, SK-LU-1;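 also: cell viability assay measuring growth inhibition of human SK-LU-1 cells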
Description: SANGER: Inhibition of human SK-LU-1 cell growth in a cell viability assay.

NCI-H1792 = format: functional, cell-based, Homo sapiens; settings: Homo sapiens, NCI-H1792;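 also: growth inhibition of human NCI-H1792 cells, read out as cell viability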
Description: SANGER: Inhibition of human NCI-H1792 cell growth in a cell viability assay.

D-566MG = format: functional, cell-based, Homo sapiens; settings: Homo sapiens, D-566MG
COLO-792 = format: functional, cell-based, Homo sapiens; settings: Homo sapiens, COLO-792
Description: SANGER: Inhibition of human COLO-792 cell growth in a cell viability assay.

SW1088 = format: functional, cell-based, Homo sapiens; settings: Homo sapiens, SW1088;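 also: growth inhibition of human SW1088 cells, read out by a cell viability assay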
Description: SANGER: Inhibition of human SW1088 cell growth in a cell viability assay.

PFSK-1 = format: functional, cell-based, Homo sapiens; settings: Homo sapiens, PFSK-1;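 also: cell viability assay measuring how strongly compounds suppress growth of human PFSK-1 cells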
Description: SANGER: Inhibition of human PFSK-1 cell growth in a cell viability assay.

LCLC-103H cell line = format: functional, cell-based, Homo sapiens; settings: Homo sapiens, LCLC-103H
Description: SANGER: Inhibition of human LCLC-103H cell growth in a cell viability assay.

KYSE-70 cell line = format: functional, cell-based, Homo sapiens; settings: Homo sapiens, KYSE-70;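 also: cell viability assay read-out, with IC50 expressing suppression of KYSE-70 cell growth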
Description: SANGER: Inhibition of human KYSE-70 cell growth in a cell viability assay.

MEL-HO = format: functional, cell-based, Homo sapiens; settings: Homo sapiens, MEL-HO
Description: SANGER: Inhibition of human MEL-HO cell growth in a cell viability assay.

AGS = format: functional, cell-based, Homo sapiens; settings: Homo sapiens, AGS;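 also: growth inhibition of AGS cells, determined with a cell viability assay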
Description: SANGER: Inhibition of human AGS cell growth in a cell viability assay.

UACC-893 = format: functional, cell-based, Homo sapiens; settings: Homo sapiens, UACC-893
Description: SANGER: Inhibition of human UACC-893 cell growth in a cell viability assay.

SCC-9 = format: functional, cell-based, Homo sapiens; settings: Homo sapiens, SCC-9;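 also: Read-out is a cell viability assay, with values giving inhibition of cell growth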
Description: SANGER: Inhibition of human SCC-9 cell growth in a cell viability assay.

KYSE-150 cell line = format: functional, cell-based, Homo sapiens; settings: Homo sapiens, KYSE-150;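 also: growth inhibition of human KYSE-150 cells, read out with a cell viability assay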
Description: SANGER: Inhibition of human KYSE-150 cell growth in a cell viability assay.

OVCAR-8 = format: functional, cell-based, Homo sapiens; settings: Homo sapiens, OVCAR-8;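 also: growth inhibition of human OVCAR-8 cells, read out by a cell viability assay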
Description: SANGER: Inhibition of human OVCAR-8 cell growth in a cell viability assay.

KOSC-2 = format: functional, cell-based, Homo sapiens; settings: Homo sapiens, KOSC-2;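 also: growth inhibition of KOSC-2 cells, read out by a cell viability assay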
Description: SANGER: Inhibition of human KOSC-2 cell growth in a cell viability assay.

NCI-H1573 = format: functional, cell-based, Homo sapiens; settings: Homo sapiens, NCI-H1573;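 also: growth inhibition of NCI-H1573 cells, read out with a cell viability assay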
Description: SANGER: Inhibition of human NCI-H1573 cell growth in a cell viability assay.

UO-31 = format: functional, cell-based, Homo sapiens; settings: Homo sapiens, UO-31;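 also: cell viability assay measuring inhibition of cell growth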
Description: SANGER: Inhibition of human U031 cell growth in a cell viability assay.

SW626 = format: functional, cell-based, Homo sapiens; settings: Homo sapiens, SW626;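 also: growth inhibition of SW626 cells, measured with a cell viability assay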
Description: SANGER: Inhibition of human SW626 cell growth in a cell viability assay.

For `COc1cc2c(Nc3ccc(NC(=O)c4ccccc4)cc3)ncnc2cc1OCCCN1CCOCC1`, the IC50 (EGI-1) was > 4 µM, the IC50 (CAPAN-1) was > 4 µM and the IC50 (Daoy) was > 4 µM. The IC50 (M14) was > 4 µM, the IC50 (BPH-1) was > 4 µM and the IC50 (TCC-SUP) was > 4 µM. The IC50 (OE33) was > 4 µM, the IC50 (HT55) was > 4 µM and the IC50 (OVCAR-3) was > 4 µM. The IC50 (CAKI-1) was > 4 µM, the IC50 (SK-MEL-30) was > 4 µM and the IC50 (Detroit 562) was 1.73 µM. The IC50 (SK-HEP1) was > 4 µM, the IC50 (BT-20) was > 4 µM and the IC50 (HT-1376) was > 4 µM. The IC50 (PC-14) was > 4 µM, the IC50 (KYSE-520 cell line) was > 4 µM and the IC50 (RPMI-7951) was > 4 µM. For the same molecule, the IC50 (HT1197) was > 4 µM, the IC50 (OAW-42) was > 4 µM and the IC50 (SK-LU-1) was > 4 µM. The IC50 (NCI-H1792) was > 4 µM, the IC50 (D-566MG) was 1.79 µM and the IC50 (COLO-792) was > 4 µM. For the same molecule, the IC50 (SW1088) was > 4 µM, the IC50 (PFSK-1) was > 4 µM and the IC50 (LCLC-103H cell line) was > 4 µM. The IC50 (KYSE-70 cell line) was > 4 µM, the IC50 (MEL-HO) was > 4 µM and the IC50 (AGS) was > 4 µM. For the same molecule, the IC50 (UACC-893) was > 4 µM, the IC50 (SCC-9) was > 4 µM and the IC50 (KYSE-150 cell line) was > 4 µM. The IC50 (OVCAR-8) was > 4 µM, the IC50 (KOSC-2) was > 4 µM and the IC50 (NCI-H1573) was > 4 µM. For the same molecule, the IC50 (UO-31) was > 4 µM and the IC50 (SW626) was > 4 µM.

`CC(C)c1ccccc1Cc1cc(C(=O)Nc2ccc(S(=O)(=O)c3ccccc3C(C)(C)C)cc2)c(O)c(O)c1O` gave an IC50 (EGI-1) of 1.25 µM, an IC50 (CAPAN-1) of 10.8 µM and an IC50 (Daoy) of 0.141 µM. The IC50 (M14) was 2.83 µM, the IC50 (BPH-1) was 0.286 µM and the IC50 (TCC-SUP) was 0.361 µM. For the same molecule, the IC50 (OE33) was 0.695 µM, the IC50 (HT55) was 0.651 µM and the IC50 (OVCAR-3) was 0.379 µM. For the same molecule, the IC50 (CAKI-1) was 0.216 µM, the IC50 (SK-MEL-30) was 0.038 µM and the IC50 (Detroit 562) was 1.27 µM. It also gave an IC50 (SK-HEP1) of 1.51 µM, an IC50 (BT-20) of 0.656 µM and an IC50 (HT-1376) of 1.9 µM. For the same molecule, the IC50 (PC-14) was 0.331 µM, the IC50 (KYSE-520 cell line) was 4.14 µM and the IC50 (RPMI-7951) was 0.888 µM. The IC50 (HT1197) was 5.95 µM, the IC50 (OAW-42) was 0.492 µM and the IC50 (SK-LU-1) was 0.711 µM. The IC50 (NCI-H1792) was 0.69 µM, the IC50 (D-566MG) was 0.116 µM and the IC50 (COLO-792) was 0.247 µM. For the same molecule, the IC50 (SW1088) was 0.455 µM, the IC50 (PFSK-1) was 0.177 µM and the IC50 (LCLC-103H cell line) was 0.21 µM. For the same molecule, the IC50 (KYSE-70 cell line) was 5.31 µM, the IC50 (MEL-HO) was 0.0882 µM and the IC50 (AGS) was 0.0375 µM. The IC50 (UACC-893) was 1.43 µM, the IC50 (SCC-9) was 0.957 µM and the IC50 (KYSE-150 cell line) was 0.465 µM. For the same molecule, the IC50 (OVCAR-8) was 0.471 µM, the IC50 (KOSC-2) was 0.496 µM and the IC50 (NCI-H1573) was 7.08 µM. It also gave an IC50 (UO-31) of 0.184 µM and an IC50 (SW626) of 0.423 µM.

In the case of `CC(C)CCN1c2nc(Nc3cc(F)c(O)c(F)c3)ncc2N(C)C(=O)C1C` (centres undefined), the IC50 (EGI-1) is reported as > 5 µM, the IC50 (CAPAN-1) is reported as > 5 µM and the IC50 (Daoy) is reported as 0.988 µM. The IC50 (M14) was > 5 µM, the IC50 (BPH-1) was 2.13 µM and the IC50 (TCC-SUP) was > 5 µM. The IC50 (OE33) was > 5 µM, the IC50 (HT55) was > 5 µM and the IC50 (OVCAR-3) was > 5 µM. For the same molecule, the IC50 (CAKI-1) was > 5 µM, the IC50 (SK-MEL-30) was > 5 µM and the IC50 (Detroit 562) was > 5 µM. The IC50 (SK-HEP1) was > 5 µM, the IC50 (BT-20) was > 5 µM and the IC50 (HT-1376) was 4.23 µM. For the same molecule, the IC50 (PC-14) was > 5 µM, the IC50 (KYSE-520 cell line) was > 5 µM and the IC50 (RPMI-7951) was 3.4 µM. For the same molecule, the IC50 (HT1197) was > 5 µM, the IC50 (OAW-42) was > 5 µM and the IC50 (SK-LU-1) was > 5 µM. The IC50 (NCI-H1792) was 2.74 µM, the IC50 (D-566MG) was 2.91 µM and the IC50 (COLO-792) was > 5 µM. For the same molecule, the IC50 (SW1088) was > 5 µM, the IC50 (PFSK-1) was > 5 µM and the IC50 (LCLC-103H cell line) was > 5 µM. The IC50 (KYSE-70 cell line) was > 5 µM, the IC50 (MEL-HO) was > 5 µM and the IC50 (AGS) was 2.34 µM. The IC50 (UACC-893) was > 5 µM, the IC50 (SCC-9) was > 5 µM and the IC50 (KYSE-150 cell line) was 2.15 µM. For the same molecule, the IC50 (OVCAR-8) was > 5 µM, the IC50 (KOSC-2) was 1.13 µM and the IC50 (NCI-H1573) was > 5 µM. The IC50 (UO-31) was > 5 µM and the IC50 (SW626) was 4.9 µM.
